According to US8232107B2, “Methods for measuring the metabolism of neurally derived biomolecules in vivo” (Washington University in St. Louis, priority 2005, dated 2012):

Tests used:
[1] = in vivo, iv, 2 mg/kg
Source text: All human studies were approved by the Washington University Human Studies Committee and the General Clinical Research Center (GCRC) Advisory Committee. Informed consent was obtained from all participants. All participants were screened to be in good general health and without neurologic disease. Seven men and three women (23-45 yrs old) participated. Each research participant was admitted to the GCRC at 7:00 AM after an overnight fast from 8 PM the preceding evening. The GCRC Research Kitchen provided meals (60% carbohydrate, 20% fat, 20% protein, low leucine diet during labeled leucine infusion) at 9 AM, 1 PM, and 6 PM and the participant had free access to water. All food and water consumption was recorded during the admission by nursing staff and the GCRC kitchen. One intravenous catheter was placed in an antecubital vein and used to administer the stable isotope labeled leucine solution. A second intravenous catheter was placed in the contra-lateral antecubital vein to obtain blood samples. A subarachnoid catheter was inserted at the L3-L4 interspace via a Touhy needle, so that CSF could be sampled without performing multiple lumbar punctures (Williams, 2002, Neurology 58: 1859-1860). […]
Every hour, 10 ml of plasma was obtained through the other IV. […] To obtain amino acid sequence and abundance data, these parent ions were subjected to collision induced dissociation (CID 28%), and tandem MS analysis of their doubly-charged species ([M+2H]^+2; m/z 663.6 and 666.6) were scanned in selected reaction monitoring mode (SRM), so that the y- and b-series ions generated were used for isotope ratio quantitation (FIG. 6). […]
Plasma and CSF samples were analyzed to determine the amount of labeled leucine present in each fluid (FIG. 9). The labeled to unlabeled leucine ratios for plasma and CSF ^13C6-leucine were quantified using capillary gas chromatography-mass spectrometry (GC-MS) (Yarasheski et al. 2005, Am J. Physiol. Endocrinol. Metab. 288: E278-284; Yarasheski et al. 1998 Am J. Physiol. 275: E577-583), which is more appropriate than LC-ESI-MS for low mass amino acid analysis.

[2] = Measurement of ApoE metabolism in vivo (CSF, WUE4 affinity purification, nanoLC tandem MS); set-up: species or system human
Source text: As depicted in FIG. 13, human ApoE was immunoprecipitated from CSF or astrocyte cell culture media using WUE4, a specific anti-human ApoE monoclonal (anti-ApoE) antibody. An immortalized astrocyte cell line from transgenic mice expressing human ApoE was used to produce ^13C6-labeled leucine ApoE standards. Immunoprecipitated ApoE was then digested with sequencing-grade trypsin. Released peptides were separated by nano liquid chromatography and quantitated by tandem mass spectrometry (nanoLC-MS). The efficiency and selectivity of the immuno-affinity purification was confirmed by analyzing the samples following a general proteomics LC-MS method. Results from Bioworks™3.2, using the SEQUEST algorithm, confirmed ApoE was the predominant protein present in samples, and identified the most abundant peptides containing leucines, which could be used for quantitation. Due to the 6 Da mass shift of a ^13C6-labeled leucine, unlabeled peptides were distinguishable from labeled peptides. Tandem MS was performed on the peptides of interest, and the percent of ^13C-leucine incorporated into ApoE was determined by calculating the ratio of labeled product ions to unlabeled product ions. The excellent linearity from 0-25% labeling (R^2=0.99) indicates the method developed to measure ApoE is sensitive, specific, and accurate.
CSF was collected every hour for 36 hours.

[3] = In vivo labeling of Aβ in human CSF, immunoprecipitation-MS/MS, calculation of FSR and FCR
Protocol: Informed consent was obtained from all participants. […] CSF samples were obtained hourly throughout the study.
Aβ metabolic labeling curves of three participants are presented in FIG. 8. ^13C6-labeled leucine was infused through one IV at a rate of 1.9 (circles), 2.5 (triangles), or 2.5 (squares) mg/kg/hr for 12 (circles, triangles) or 9 (squares) hours. Each hour, 10 ml of plasma and 6 ml of CSF were obtained through the other IV and the lumbar catheter, respectively. There was a 5-hour lag time before significant rises in labeled Aβ was detected. This was followed by a 9 (squares) or 12 (triangles or circles) hour increase in labeled Aβ until it plateaued for another 5 hours.
For each hourly sample of CSF collected, the ratio of labeled to unlabeled Aβ was determined by immunoprecipitation-MS/MS, as described above. The MS/MS ions from ^13C6-labeled Aβ17-28 were divided by the MS/MS ions from unlabeled Aβ17-28 to produce a ratio of labeled Aβ to unlabeled Aβ (see TTR formula, above). There was no measurable labeled Aβ for the first 4 hours, followed by an increase from 5 to 13 hours. There was no significant change from 13 to 24 hours. The labeled Aβ decreased from 24 to 36 hours.
[formula] Where (Et2-Et1)Aβ/(t2-t1) is defined as the slope of labeled Aβ during labeling and the Precursor E is the ratio of labeled leucine. FSR, in percent per hour, was operationally defined as the slope of the linear regression from 6 to 15 hours divided by the average of CSF ^13C6-labeled leucine level during infusion (see FIG. 11A-C). For example, a FSR of 7.6% per hour means that 7.6% of total Aβ was produced each hour.
The fractional clearance rate (FCR) was calculated by fitting the slope of the natural logarithm of the clearance portion of the labeled Aβ curve, according to the following formula: […]
The FCR was operationally defined as the natural log of the labeled Aβ from 24 to 36 hours (FIG. 11D-F). For example, a FCR of 8.3% per hour means that 8.3% of total Aβ was cleared each hour. The average FSR of Aβ for these 6 healthy young participants was 7.6%/hr and the average FCR was 8.3%/hr (FIG. 12). These values were not statistically different from each other.

In the case of `CC(C)C[C@H](N)C(=O)O` [^13C6-leucine], the “steady state level of 13C6-leucine in CSF” value [1] is reported as 10%, the “steady state level of 13C6-leucine in plasma” value [1] is reported as 14% and the “time to reach steady state levels in plasma and CSF” value [1] is reported as “within an hour”.
In the case of “ApoE: human apolipoprotein E, CNS-derived, purified from CSF”, the “fractional synthesis rate (FSR) of ApoE” value ([2]; CSF, young normal controls (FIG. 15 and 16)) is reported as “approximately 2 percent per hour” and the “time in which approximately half of the ApoE pool is synthesized in the human brain” value ([2]; from FSR) is reported as “about 24 hours”.
In the case of “Aβ: amyloid-β protein, CNS derived biomolecule whose metabolism is measured”, the “average fractional synthesis rate (FSR) of Aβ” value ([3]; 6 healthy young participants) is reported as 7.6 %/hr, the “average fractional clearance rate (FCR) of Aβ” value ([3]; hours 24 to 36, 3 participants) is reported as 8.3 %/hr and the “initial period with no measurable labeled Aβ” value ([3]; mean of n=6 (FIG. 10)) is reported as 4 h. For the same compound, the “lag time before significant rises in labeled Aβ” value ([3]; three participants (FIG. 8)) was 5 h.
